What all share (type): cell-based
Assay [1] addresses T1, KRAS G12V protein in SW900 cells (Homo sapiens, UniProt P01116, G12V).
T1 construct: endogenous in cells; host or cells: SW900
Kind of assay: KRAS degradation assay (Western Blot) in SW900 cells. To be noted: 24 h. From the text: (§1) Test Example 5: KRAS G12C, KRAS G12D, KRAS G12V, KRAS G13D, and KRAS WT (Expanded) Degradation Assays
(§2) The degradation effect of the compounds on KRAS was investigated on KRAS G12C mutant human non-small cell lung cancer cell NCI-H358, KRAS G12D mutant human metastatic pancreatic cancer cell AsPc-1, KRAS G12D mutant human lung cancer cell A427, KRAS G12V mutant human colorectal cancer cell SW620, KRAS G12V mutant human lung cancer cell SW900, KRAS G13D mutant human colorectal cancer epithelial cell DLD-1, and KRAS WT human gastric cancer cell MKN-1. The specific procedures were as follows: 0.95 mL of cells were seeded into each well of a 24-well cell culture plate to achieve a cell density of 5×10^5 cells/well; and the cell plate was incubated in an incubator at 37° C. with 5% CO2 overnight. Then 50 μL of the compound solution after dilution was added to each of the wells with the corresponding cells, so that the final concentration of the compound was in a range of 0.03-3000 nM. The final concentration of DMSO was 0.25%. After the compounds were added, the cell plate was incubated in an incubator at 37° C. with 5% CO2 for 24 h. The culture medium in the 24-well cell culture plate was then removed, and the plate was washed twice with 1×PBS (KeyGEN). 120 μL of RIPA (strong) lysis buffer (Beyotime) (supplemented with 1 mM phenylmethylsulfonyl fluoride, a protease inhibitor mixture (Beyotime), and a protease phosphatase inhibitor mixture (Beyotime)) was added to lyse adherent SW900 cells at the bottom of the cell culture plate. After the plate was left to stand on ice for 30 min, the protein lysate in each well was transferred to a 1.5 mL centrifuge tube and centrifuged at 15000 g for 20 min at 4° C. The cell lysate supernatants after centrifugation were cryopreserved in a refrigerator at −80° C. for later use.
(§3) After the samples of the cell lysate supernatants that had been prepared were thawed from the refrigerator at −80° C., the total protein concentrations of the cell lysates were determined using a BCA protein quantification kit (Tiangen). The total protein concentrations of the samples were then adjusted to 0.5 μg/μL with PBS and 5×SDS-PAGE protein loading buffer (Beyotime), and the samples were incubated in a water bath at 100° C. for 15 min. The samples were then incubated in an ice bath for 5 min and centrifuged at 14000 g for 1 min at 4° C., and the supernatants were mixed well as loading samples for the Western Blot assay. The samples were loaded into wells of a 10% precast gel (KeyGEN) with a loading volume of 10 μL (total protein: 5 μg), a sufficient Tris-MOPS-SDS running buffer (Adamas) was added, and then electrophoresis was performed at a constant voltage of 120 V for 55 min. After the electrophoresis, the proteins on the gel were transferred to PVDF membranes at a constant current of 250 mA for 55 min. After the membrane transfer, the PVDF membranes were incubated in 1× Quick Block blocking buffer (Beyotime)at room temperature for 30 min. After the blocking, the PVDF membranes were separately incubated at 4° C. overnight with the KRAS antibody (Abcam) diluted in a ratio of 1:1000 and the β-actin antibody (Abcam) diluted in a ratio of 1:2000 in 5% BSA as the diluent, and then washed with 1×TBST buffer (2.4 g of Tris, 8.8 g of NaCl, 1.5 mL of Tween 20, with pH adjusted to 7.4, with the volume brought to 1 L) 3 times for 10 min/time. The membranes were incubated with a secondary antibody (Abcam) diluted in 5% BSA at room temperature for 2 h, and then washed with 1×TBST buffer 3 times for 10 min/time. Finally, the membranes were incubated with Clarity Western ECL Substrate (BIO-RAD) for 5 min for luminescence and color development, and a ChemiScope 6200 Touch chemiluminescence imaging system (Clinx) was used for color development and protein mapping. Gray value analysis of the protein maps was performed using the chemiluminescence analysis software (Clinx). […]
On the technique in general: A western blot detects proteins with antibodies after separation by electrophoresis.

Assay [2] concerns the target T2, KRAS G12V protein in SW620 cells (Homo sapiens, UniProt P01116, G12V).
T2 construct: endogenous in cells; host or cells: SW620
Kind of assay: KRAS degradation assay (Western Blot) in SW620 cells. To be noted: for DC50: 24 h; for Dmax: SW-620, 24 h.
Source text: as §1, §2, §3

Assay [3] deals with KRAS G12C mutant human non-small cell lung cancer cell NCI-H358. Kind of assay: 3D cell proliferation inhibition assay, NCI-H358. The note with it: NCI-H358, 168 h, 3D culture, 7 days, CTG. From the text:
(§4) Test Example 6: 3D Cell Proliferation Inhibition Assay
(§5) The inhibitory effects of the compounds on 3D cell proliferation were investigated on KRAS G12C mutant human non-small cell lung cancer cell NCI-H358, KRAS G12D mutant human lung cancer cell A427, KRAS G12D mutant human gastric cancer cell AGS, KRAS G12D mutant human metastatic pancreatic cancer cell AsPc-1, KRAS G12V mutant human lung squamous carcinoma cell SW900, KRAS G12V mutant human colorectal cancer cell SW620, KRAS G13D mutant human colorectal cancer epithelial cell DLD-1, and KRAS WT human gastric cancer cell MKN1. The specific procedures were as follows:
(§6) 10 μL of each compound solution diluted in a gradient was added to corresponding wells of a 96-well low-adsorption microplate (PerkinElmer), so that the final concentrations of the test compounds in the reaction system were in a range of 10000-0.026 nM. The final concentration of DMSO was 0.2%. Then 90 µL of cells were correspondingly seeded into each well to achieve a cell density of 5×10^2 cells/well (the cell density of SW900 was 5×10^3 cells/well, and the cell density of MKN1 was 1×10^3 cells/well). In addition to test wells for the test compounds, both a DMSO control well and a medium control well were set, with the DMSO control well containing DMSO and cells and the medium well containing only a medium. After the sample loading, the 96-well low-adsorption microplate was incubated in an incubator at 37° C. with […] for 7 days. After 7 days, the microplate was taken out, and 100 μL of CTG reagent (Promega) was added to each well. The plate was incubated at room temperature for 60 m and read on a microplate reader EnVision by the chemiluminescence program. The inhibition rates of the compounds at each concentration were calculated using the formula for the percentage inhibition of cell proliferation: inhibition rate 00=(mean value of DMSO control group−single concentration reading value of compound)/(mean value of DMSO control group−mean value of medium control group)×100. Then non-linear curve fillings for logarithmic concentration-inhibition rate were performed by GraphPad Prism 8, and the IC50 values of the compounds were obtained (Table 6).

Assay [4] relates to KRAS G12D mutant human metastatic pancreatic cancer cell AsPc-1. Kind of assay: 3D cell proliferation inhibition assay, AsPc-1. The note with it: ASPC1, 168 h, 3D culture, 7 days, CTG.
Source text: as §4, §5, §6

In assay [5] the test system is KRAS G12V mutant human colorectal cancer cell SW620. Kind of assay: 3D cell proliferation inhibition assay, SW620. To be noted: SW-620, 168 h, 3D culture, 7 days, CTG.
Source text: as §4, §5, §6

For assay [6], the system named is KRAS G13D mutant human colorectal cancer epithelial cell DLD-1. Kind of assay: 3D cell proliferation inhibition assay, DLD-1. The note with it: DLD-1, 168 h, 3D culture, 7 days, CTG.
Source text: as §4, §5, §6

T2 sequence (P01116 1-188 isoform P01116-2 G12V): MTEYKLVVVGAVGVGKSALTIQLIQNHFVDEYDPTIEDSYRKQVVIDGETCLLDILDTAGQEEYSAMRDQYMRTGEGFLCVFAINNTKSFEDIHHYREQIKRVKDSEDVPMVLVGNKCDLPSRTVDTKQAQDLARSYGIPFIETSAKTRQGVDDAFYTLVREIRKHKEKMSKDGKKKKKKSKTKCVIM
T1 sequence (P01116 1-188 isoform P01116-2 G12V): as above

The term DC50 denotes the midpoint of the concentration-degradation curve. Read a low DC50 as a more potent degrader. Broadly, the Dmax is the largest share of the target that was removed. With `C#Cc1c(F)ccc2cc(O)cc(-c3ncc4c(N5CCC[C@@](C)(O)C5)nc(OCC5(CN6CCC(CN(C)CCC7CCN(C(=O)c8ccc(Cl)c(N9CCC(=O)NC9=O)c8)CC7)CC6)CC5)nc4c3F)c12` [Example 18, (R)-1-(2-chloro-5-(4-(2-(((1-((1-(((7-(8-ethynyl-7-fluoro-3-hydroxynaphthalen-1-yl)-8-fluoro-4-(3-hydroxy-3-methylpiperidin-1-yl)piperidino[4,3-d]pyrimidin-2-yl)oxy)methyl)cyclopropyl)methyl)piperidin-4-yl)methyl)(methyl)amino)ethyl)piperidine-1-carbonyl)phenyl)dihydropyrimidine-2,4(1H,3H)-dione], in assay [1], the DC50 was in the range of 100 to 500 nM and the greatest degradation seen (Dmax) lay in the range of 50 to 80%.

For `C#Cc1c(F)ccc2cc(O)cc(-c3ncc4c(NC5CC5)nc(OCC5(CN6CCN(CC7CCC8(CC7)CCN(C(=O)c7ccc(OC)c(N9CCC(=O)NC9=O)c7)CC8)CC6)CC5)nc4c3F)c12` [Example 31, 1-(5-(9-((4-((1-(((4-(cyclopropylamino)-7-(8-ethynyl-7-fluoro-3-hydroxynaphthalen-1-yl)-8-fluoropyrido[4,3-d]pyrimidin-2-yl)oxy)methyl)cyclopropyl)methyl)piperazin-1-yl)methyl)-3-azaspiro[5.5]undecane-3-carbonyl)-2-methoxyphenyl)dihydropyrimidine-2,4(1H,3H)-dione], in assay [1], the DC50 lay in the range of 50 to 100 nM and the Dmax lay within 50 to 80%.

For the molecule `C#Cc1c(F)ccc2cc(O)cc(-c3ncc4c(NC(C)(C)C)nc(OCC5(CN6CCN(CC7CCC8(CC7)CCN(C(=O)c7ccc(OC)c(N9CCC(=O)NC9=O)c7)CC8)CC6)CC5)nc4c3F)c12` [Example 32, 1-(5-(9-((4-((1-(((4-(tert-butylamino)-7-(8-ethynyl-7-fluoro-3-hydroxynaphthalen-1-yl)-8-fluoropyrido[4,3-d]pyrimidin-2-yl)oxy)methyl)cyclopropyl)methyl)piperazin-1-yl)methyl)-3-azaspiro[5.5]undecane-3-carbonyl)-2-methoxyphenyl)dihydropyrimidine-2,4(1H,3H)-dione], in assay [1], the half-maximal degradation concentration (DC50) is not above 50 nM and the maximal degradation (Dmax) lay within 50 to 80%.

What is called IC50 is the concentration needed to halve the response being measured. Read a high IC50 as weaker potency. As to `C#Cc1c(F)ccc2cc(O)cc(-c3ccc4c(N5CCC[C@@](C)(O)C5)nc(OC[C@H](C)CN5CCN(CC6CCC7(CC6)CCN(C(=O)c6ccc(OC)c(N8CCC(=O)NC8=O)c6)CC7)CC5)nc4c3F)c12` [Example 60, 1-(5-(9-((4-((R)-3-((7-(8-ethynyl-7-fluoro-3-hydroxynaphthalen-1-yl)-8-fluoro-4-((R)-3-hydroxy-3-methylpiperidin-1-yl)quinazolin-2-yl)oxy)-2-methylpropyl)piperazin-1-yl)methyl)-3-azaspiro[5.5]undecane-3-carbonyl)-2-methoxyphenyl)dihydropyrimidine-2,4(1H,3H)-dione], the DC50 in assay [2] came out at 4.25 nM. In assay [2], this molecule gave a Dmax of 99.1%. In addition, the IC50 in assay [3] was found to be 24 nM; in assay [4], 60.8 nM; in assay [5], 15.4 nM; in assay [6] it was 57.5 nM.

Regarding `C#Cc1c(F)ccc2cc(O)cc(-c3ccc4c(N5CCC[C@@](C)(O)C5)nc(OC[C@H](C)CN5CCN(CC6CCC7(CC6)CCN(C(=O)c6ccc(C)c(N8CCC(=O)NC8=O)c6)CC7)CC5)nc4c3F)c12` [Example 61, 1-(5-(9-((4-((R)-3-((7-(8-ethynyl-7-fluoro-3-hydroxynaphthalen-1-yl)-8-fluoro-4-((R)-3-hydroxy-3-methylpiperidin-1-yl)quinazolin-2-yl)oxy)-2-methylpropyl)piperazin-1-yl)methyl)-3-azaspiro[5.5]undecane-3-carbonyl)-2-methylphenyl)dihydropyrimidine-2,4(1H,3H)-dione], it took 18.9 nM to reach half-maximal degradation in assay [2] (DC50). The Dmax in assay [2] came to 99.3%. The IC50 in assay [3] came to 18.9 nM; in assay [4] it was 68.2 nM; in assay [5] it was 13.3 nM; in assay [6], 39.9 nM.

Molecule `C#Cc1c(F)ccc2cc(O)cc(-c3ncc4c(N5CCCC(F)(F)C5)nc(OC[C@H](C)CN5CCN(CC6CCC7(CC6)CCN(C(=O)c6ccc(OC)c(N8CCC(=O)NC8=O)c6)CC7)CC5)nc4c3F)c12` [Example 67, (R)-1-(5-(9-((4-(3-((4-(3,3-difluoropiperidin-1-yl)-7-(8-ethynyl-7-fluoro-3-hydroxynaphthalen-1-yl)-8-fluoropyrido[4,3-d]pyrimidin-2-yl)oxy)-2-methylpropyl)piperazin-1-yl)methyl)-3-azaspiro[5.5]undecane-3-carbonyl)-2-methoxyphenyl)dihydropyrimidine-2,4(1H,3H)-dione] displayed a DC50 in assay [2] of 33.6 nM. The molecule also gave a Dmax in assay [2] of 93.1%. The IC50 in assay [3] was 535 nM; in assay [4] it was 417 nM; in assay [5] it was 32.9 nM; in assay [6], 70.2 nM.

Take `C#Cc1c(F)ccc2cc(O)cc(-c3ncc4c(N5CCCC(C)(N)C5)nc(OCC5(CN6CCN(CC7CCC8(CC7)CCN(C(=O)c7ccc(C)c(N9CCC(=O)NC9=O)c7)CC8)CC6)CC5)nc4c3F)c12` (stereo not shown) [Example 166, 1-(5-(9-((4-((1-(((4-(3-amino-3-methylpiperidin-1-yl)-7-(8-ethynyl-7-fluoro-3-hydroxynaphthalen-1-yl)-8-fluoropyrido[4,3-d]pyrimidin-2-yl)oxy)methyl)cyclopropyl)methyl)piperazin-1-yl)methyl)-3-azaspiro[5.5]undecane-3-carbonyl)-2-methylphenyl)dihydropyrimidine-2,4(1H,3H)-dione]: in assay [4], the IC50 stood at 523 nM.

Source of the values: US20260167622A1, “PAN-KRAS DEGRADING AGENT, AND PREPARATION METHOD THEREFOR AND USE THEREOF” (LEADINGTAC PHARMACEUTICAL (SHAOXING) CO., LTD., priority 2022, published 2026).
